# Results reported in PubChem BioAssay (NCI).
#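 The compound was tested at five concentrations on cells cultured in 96-well plates, with a 48-hour exposure period. At the GI50, growth is halved. The concentration for full growth arrest is given as TGI.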
# Columns and labels:
# Assay in all cases: inhibition of tumour cell growth, NCI panel, 48 h
# ACHN renal = test system: ACHN renal
# CCRF-CEM leukemia = test system: CCRF-CEM leukemia
# OVCAR-3 ovarian = test system: OVCAR-3 ovarian
# SN12C renal = test system: SN12C renal
# MOLT-4 leukemia = test system: MOLT-4 leukemia
# DU-145 prostate = test system: DU-145 prostate
# PC-3 prostate = test system: PC-3 prostate
# HL-60(TB) leukemia = test system: HL-60(TB) leukemia
# 786-0 renal = test system: 786-0 renal
# MALME-3M melanoma = test system: MALME-3M melanoma
SMILES,TGI (ACHN renal) [µM],TGI (CCRF-CEM leukemia) [µM],TGI (OVCAR-3 ovarian) [µM],TGI (SN12C renal) [µM],TGI (MOLT-4 leukemia) [µM],TGI (DU-145 prostate) [µM],TGI (PC-3 prostate) [µM],TGI (HL-60(TB) leukemia) [µM],TGI (786-0 renal) [µM],TGI (MALME-3M melanoma) [µM],GI50 (ACHN renal) [µM],GI50 (CCRF-CEM leukemia) [µM],GI50 (OVCAR-3 ovarian) [µM],GI50 (SN12C renal) [µM],GI50 (MOLT-4 leukemia) [µM],GI50 (DU-145 prostate) [µM],GI50 (PC-3 prostate) [µM],GI50 (HL-60(TB) leukemia) [µM],GI50 (786-0 renal) [µM],GI50 (MALME-3M melanoma) [µM]
O=C(O)c1ccc(SSc2ccc(C(=O)O)cn2)nc1,> 100,> 100,> 100,> 100,> 100,> 100,> 100,> 100,> 100,> 100,,,,,,,,,,
CCn1c2ccccc2c2cc(C(=O)c3ccc(C)c4ccccc34)ccc21,> 100,> 100,0.938,> 100,> 100,> 100,> 100,2,> 100,> 100,0.729,0.359,0.308,2.44,0.0578,0.435,0.392,0.307,0.426,0.5
C=C1CCC2C3(C)COC(c4ccccc4Cl)OC3CCC2(C)C1/C=C/C1=CCOC1=O (stereo not given),> 100,> 100,> 100,> 100,> 100,> 100,> 100,> 100,> 100,> 100,38.7,5.33,26.2,> 100,3.77,> 100,3.17,4.97,> 100,17.2
O=C[C@@H](CO)O[C@H](C=O)n1cnc2c(=O)[nH]cnc21,2050,559,1410,1380,686,1450,1780,217,2010,1300,,,,,,,,,,
COc1cc(CNc2oc(-c3ccccc3)c(-c3ccccc3)c2C#N)cc(CN2CCN(C)CC2)c1O,3.19,10,3.21,15.3,4.24,4.03,4.09,4.19,3.21,3.41,1.8,2.85,1.76,3.95,1.96,1.99,1.87,1.79,1.68,1.85
Nc1ccc(/C=C/c2ccc3cccnc3c2)cc1,> 100,> 100,> 100,> 100,> 100,> 100,> 100,> 100,> 100,> 100,,,,,,,,,,
CC/C(=C/c1ccc(OC)cc1OC)[N+](=O)[O-],4.63,7.01,3.38,6.61,35.6,13.8,13.1,7.93,3.29,4.93,2.14,2.05,1.84,2.31,3.73,3.61,3.84,2.6,1.77,1.91
N#Cc1cccc(N2C(=O)C3C4C=CC(C3C2=O)C2C(=O)N(c3cccc(C#N)c3)C(=O)C42)c1 (stereo not given),55.2,53.7,> 100,> 39.8,50.2,> 100,> 100,> 100,> 63.1,99.4,,,,,,,,,,
COc1ccc(-c2cc(=O)c3c(O)c(OC)c(OC)c(OC)c3o2)cc1,> 100,> 100,> 100,> 100,> 100,> 100,> 100,> 100,> 100,> 100,,,,,,,,,,
Nc1cccc2c1C(=O)c1cccc(NC(=O)c3ccccc3)c1C2=O,> 100,> 100,1.47,> 80.6,> 100,> 22.6,> 100,> 100,15.7,7.09,0.59,0.401,0.254,0.723,0.751,0.561,0.374,0.292,0.646,0.242
CCOC(=O)CN1C(=O)c2cc([N+](=O)[O-])cc3cc([N+](=O)[O-])cc(c23)C1=O,> 100,23.2,> 100,> 100,> 64.9,> 100,> 100,8.99,> 100,> 100,,,,,,,,,,
Cc1cc(O)c(-c2ccc([C@@H](C)CN(C)C)cc2)c2c1[nH]c(=O)c1sccc12,7.95,> 41.9,6.17,20.7,17.7,53.3,18,7.38,5.43,4.59,0.794,1.77,0.613,0.627,1.69,0.528,0.667,0.453,0.248,1.53
O=C(/C=C/C12c3ccccc3C(c3ccccc31)C1C(=O)NC(=O)C12)c1ccccc1 (stereo not given),3.59,12.5,3.37,6.91,11.6,3.51,3.45,5.97,3.1,3.15,1.75,2.17,1.65,2.29,2.17,1.64,1.62,1.5,1.7,1.64
CC(C)c1ccc(NC(=O)Cc2ccc(Nc3ncnc4cc(-c5cnn(CCN(C)C)c5)ccc34)cc2)cc1,> 10,4.68,2.94,3.05,4.73,2.83,2.92,> 10,3.96,> 10,2.45,0.0522,1.44,1.34,1.43,1.46,1.31,2.84,1.63,> 10
CC[C@H](C)[C@H](NC(=O)c1cccn1C)C(=O)N(C)[C@H](C[C@@H](OC(C)=O)c1nc(C(=O)N[C@@H](Cc2ccccc2)C[C@H](C)C(=O)OC)cs1)C(C)C,> 33.3,> 33.3,0.272,> 33.3,> 33.3,> 33.3,> 33.3,0.208,> 15.8,> 33.3,0.502,0.138,0.0809,0.351,0.429,0.348,0.141,0.076,0.172,11.1
COc1cc(NCCCCCN=C(N)NC(N)=NC(C)C)c2ncccc2c1,31.2,17.4,0.759,14.8,11,22.3,13.8,3.46,26.6,1.91,14.8,2.2,0.217,2.32,0.518,10.3,0.972,0.575,12.2,0.43
CC(C)(C)OC(=O)Nc1ccc2c(c1)C(NC(=O)Nc1cccc(C#N)c1)CC(C)(C)O2 (stereo not given),> 100,> 100,> 100,> 100,> 64.6,> 100,> 35.3,22.3,> 100,> 68,3.99,3.8,2.15,4.57,1.96,6.5,0.785,2.39,5.05,3.69
COc1cc2c3c(n(CCCNCCCN)c(=O)c2cc1OC)-c1cc2c(cc1C3=O)OCO2,13.7,15.8,11.7,13.3,0.688,13.4,14.6,5.28,14.2,8.66,3.14,0.22,3.08,2.34,0.244,3.08,3.53,1.46,2.83,2.21
C=C1C(=O)O[C@H]2C[C@@H]1C(=O)CC(C)CCCC(C)=CCC[C@@]2(C)O (stereo not given in full),> 25,> 25,> 25,> 25,> 25,> 25,> 25,> 25,> 25,> 25,,,,,,,,,,
